According to patent US20190345138A1, “HETEROCYCLIC AMIDES AS KINASE INHIBITORS” (GlaxoSmithKline Intellectual Property Development Limited, priority 2016, published 2019):
“And” between values parts separate entries of the source, which are not always exact repeats. Identical values can stand only once.

Columns and labels:
RIP1 kinase = molecular target: T1, RIP1 kinase (Homo sapiens, UniProt Q13546); assay: fluorescent polarization based binding assay; settings: mean of a minimum of 2 experiments
T1 sequence (Q13546 1-375 limits assumed): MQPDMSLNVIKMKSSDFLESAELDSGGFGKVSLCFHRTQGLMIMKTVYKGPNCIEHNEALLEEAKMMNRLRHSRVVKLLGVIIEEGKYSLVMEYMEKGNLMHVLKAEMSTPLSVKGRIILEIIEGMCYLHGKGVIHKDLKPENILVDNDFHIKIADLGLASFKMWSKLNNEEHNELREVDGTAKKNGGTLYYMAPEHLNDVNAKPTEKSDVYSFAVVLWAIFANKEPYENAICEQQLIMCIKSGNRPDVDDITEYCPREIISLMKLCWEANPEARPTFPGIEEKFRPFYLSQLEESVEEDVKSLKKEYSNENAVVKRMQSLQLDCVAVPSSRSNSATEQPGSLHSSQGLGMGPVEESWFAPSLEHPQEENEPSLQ
Description: A fluorescent polarization based binding assay was used to assess the activity of the compounds of this invention, the details of which are disclosed in International Patent Appln. No. PCT/IB2014/059004, now, International Patent Appln. Pub.

[1] = test system: human monocytic leukemia U937 cells; assay: necroptosis assay in U937 cells; assay type: cell-based; settings: viability by cellular ATP (Cell Titer-Glo)
How it was run: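 Necroptosis was induced in human U937 or mouse L929 cells, and viability was quantified as cellular ATP with Cell Titer-Glo. Data are means±standard deviation.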

[2] = test system: mouse L929 fibrosarcoma cells; assay: necroptosis assay in L929 cells; assay type: cell-based; settings: L929 cells, viability by cellular ATP (Cell Titer-Glo), read-out: pIC50, inhibited necrosis in L929 cells (converted)
Protocol: The efficacy of RIP1 inhibitors can be tested […] in vitro using a human monocytic leukemia U937 or mouse L929 fibrosarcoma cells in a necroptosis assay. As determined using the method described in S. He et al., Cell, 137(6):1100-1111 (2009) and International Patent Appln. No. PCT/IB2014/059004, now, International Patent Appln. Pub.
Viability was measured by quantitating cellular levels of ATP using the Cell Titer-Glo kit. All data are means±standard deviation of the mean.

[3] = test system: TNF-driven systemic inflammatory response syndrome model; assay: TNF-driven systemic inflammatory response syndrome model (TNF/zVAD or TNF alone), temperature loss; assay type: in vivo; settings: Mus musculus, po, pre-dosed 15 minutes before i.v. mouse TNF alone or with zVAD; for inhibition in vivo at 10 mg/kg: 10 mg/kg PO; for inhibition in vivo at 3 mg/kg: 3 mg/kg PO
Description: The efficacy of RIP1 inhibitors can be tested in mice in vivo using a TNF-driven systemic inflammatory response syndrome model (L. Duprez et al. Immunity 35(6):908-918, (2011)) using TNF plus the caspase inhibitor zVAD or TNF alone. The TNF/zVAD model is terminated at ˜3 hrs and the TNF alone model is terminated at ˜8 hrs (under IACUC guidelines for temperature loss). TNF (or TNF/zVAD) induced manifestations include temperature loss, the production of numerous cytokines (including IL-6, IL-1b, MIP1β and MIP2) in the periphery, liver and intestinal inflammation and an increase of markers of cellular (LDH and CK) and liver damage (AST and ALT) in the serum. Inhibition of these TNF alone or TNF/zVAD induced manifestations can be shown by PO pre-dosing with selected compounds. For example, mice (8 mice per group) were pre-dosed PO with vehicle or compound 15 minutes before i.v. administration of mouse TNF (30 μg/mouse) alone or in combination with zVAD (0.4 mg/mouse) simultaneously. Temperature loss in the mice was measured by rectal probe. The study was terminated when the control group lost 7 degrees, per our IACUC protocol. All data are shown as means±standard error of the mean.

[4] = background statement; cited from earlier work

Row | Compound | IC50 (RIP1 kinase) | IC50 [2] | inhibition in vivo at 10 mg/kg [3] | further results
1 | CN1C(=O)C(Cc2c[nH]c3ccccc23)NC1=S (stereo not drawn) [Necrostatin-1] |  |  |  | oral bioavailability [4]: poor
2 | NC(=O)c1cc(N2CCC(C(=O)N3N=CC[C@H]3c3ccccc3)CC2)ncn1 [Example 32, (S)-6-(4-(5-phenyl-4,5-dihydro-1H-pyrazole-1-carbonyl)piperidin-1-yl)pyrimidine-4-carboxamide] | 0.001 to 0.0316 µM and 0.001 to 0.01 µM and ~0.01 µM | ~0.316 µM | 104% | 
3 | NC(=O)c1cnc(N2CCC(C(=O)N3N=CC[C@H]3c3ccccc3)CC2)nc1 [Example 131, (S)-2-(4-(5-phenyl-4,5-dihydro-1H-pyrazole-1-carbonyl)piperidin-1-yl)pyrimidine-5-carboxamide] | ~0.0398 µM | ~3.98 µM | 83% | IC50 ([1]; Homo sapiens, U-937, U937 cells, read-out: pIC50, inhibited necrosis in U937 cells (converted)): ~0.158 µM
4 | NC(=O)c1cc(N2CCC(C(=O)N3N=CC[C@H]3c3cc(F)cc(F)c3)CC2)ncn1 [Example 85, (S)-6-(4-(5-(3,5-difluorophenyl)-4,5-dihydro-1H-pyrazole-1-carbonyl)piperidin-1-yl)pyrimidine-4-carboxamide] | 0.001 to 0.0316 µM and 0.001 to 0.01 µM and ~0.01 µM | ~0.316 µM |  | inhibition in vivo at 3 mg/kg [3]: 88%
5 | Nc1cc(N2CCC(C(=O)N3N=CC[C@H]3c3ccccc3)CC2)ncn1 [Example 20, (S)-(1-(6-aminopyrimidin-4-yl)piperidin-4-yl)(5-phenyl-4,5-dihydro-1H-pyrazol-1-yl)methanone] | 0.001 to 0.0316 µM and ~0.0158 µM | ~1 µM | 92% | 

More lines, main results first:

Row | IC50 (RIP1 kinase) | Compound | IC50 [2] | inhibition in vivo at 10 mg/kg [3] | further results
6 | 0.001 to 0.0316 µM and ~0.0316 µM | NC(=O)c1cc(N2CCC(C(=O)N3N=CC[C@H]3c3cncc(F)c3)CC2)ncn1 [Example 108, (S)-6-(4-(5-(5-fluoropyridin-3-yl)-4,5-dihydro-1H-pyrazole-1-carbonyl)piperidin-1-yl)pyrimidine-4-carboxamide] | ~10 µM | 54% | pIC50, inhibited necrosis in U937 cells ([1]; U937 cells): ~7.3; inhibition in vivo at 0.1 mg/kg ([3]; 0.1 mg/kg PO): -4%; inhibition in vivo at 1 mg/kg ([3]; 1.0 mg/kg PO): -11%; inhibition in vivo at 100 mg/kg ([3]; 100 mg/kg PO): 94%
7 | 0.001 to 0.0316 µM and ~0.0251 µM | NC(=O)c1ccnc(N2CCC(C(=O)N3N=CC[C@H]3c3cncc(F)c3)CC2)n1 [Example 109, (S)-2-(4-(5-(5-fluoropyridin-3-yl)-4,5-dihydro-1H-pyrazole-1-carbonyl)piperidin-1-yl)pyrimidine-4-carboxamide] | ~0.251 µM |  | inhibition in vivo at 3 mg/kg [3]: 84%
8 | 0.001 to 0.0316 µM and ~0.0158 µM | N#Cc1cccc([C@@H]2CC=NN2C(=O)C2CCN(c3nccc(C(N)=O)n3)CC2)c1 [Example 71, (S)-2-(4-(5-(3-cyanophenyl)-4,5-dihydro-1H-pyrazole-1-carbonyl)piperidin-1-yl)pyrimidine-4-carboxamide] | ~0.794 µM | 93% | 
